Data reported in patent US10183950B2, “Thienopyrimidine inhibitors of atypical protein kinase C” (Cancer Research Technology Limited, priority 2011, dated 2019).

These molecules were tested against T1, full-length human PKCι (Homo sapiens, UniProt P41743) (assay: PKCι IC50 IMAP fluorescence polarisation assay, full-length enzyme). Conditions: full length PKCi at 15 μM ATP; read-out: IC50 in IMAP assay against full length PKCi.
T1 construct: Recombinant, full-length human PKCι expressed in Sf21 insect cells is also commercially available; purchased; host or cells: Sf21 insect cells
T1 sequence (P41743 1-596): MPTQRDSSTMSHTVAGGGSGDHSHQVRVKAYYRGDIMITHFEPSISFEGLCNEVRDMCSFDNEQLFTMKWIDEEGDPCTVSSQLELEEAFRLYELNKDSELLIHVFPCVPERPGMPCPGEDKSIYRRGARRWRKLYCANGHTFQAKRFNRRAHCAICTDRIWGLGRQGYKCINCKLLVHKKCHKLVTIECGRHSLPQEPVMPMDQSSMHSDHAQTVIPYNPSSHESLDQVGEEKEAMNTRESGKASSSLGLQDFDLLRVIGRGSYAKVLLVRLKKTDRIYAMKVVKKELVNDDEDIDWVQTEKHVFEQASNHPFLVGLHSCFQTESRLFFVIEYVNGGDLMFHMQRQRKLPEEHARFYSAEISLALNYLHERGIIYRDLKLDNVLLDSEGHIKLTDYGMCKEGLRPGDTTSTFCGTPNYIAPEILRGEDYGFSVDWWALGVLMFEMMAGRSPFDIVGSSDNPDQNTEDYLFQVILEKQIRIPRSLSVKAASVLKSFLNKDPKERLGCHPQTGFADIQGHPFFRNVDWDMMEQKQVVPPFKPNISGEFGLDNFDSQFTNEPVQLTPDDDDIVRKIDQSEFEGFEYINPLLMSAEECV
Format: biochemical

Row | SMILES | IC50 [µM]
1 | CC(C)(C)c1sc2c(NC[C@@H](N)Cc3ccccc3)nc(-c3ccncc3)nc2c1-c1ccc(F)cc1 [compound 442, (S)-N*1*-[6-tert-Butyl-7-(4-fluoro-phenyl)-2-pyridin-4-yl-thieno[3,2-d]pyrimidin-4-yl]-3-phenyl-propane-1,2-diamine] | 10 to 40
2 | Fc1cnccc1-c1nc(N[C@@H]2CCNC2)c2scc(Nc3ccccn3)c2n1 [compound 495, 2-(3-Fluoro-pyridin-4-yl)-N*7*-pyridin-2-yl-N*4*- (R)-pyrrolidin-3-yl-thieno[3,2-d]pyrimidine-4,7-diamine] | 10 to 40
3 | Fc1cnccc1-c1nc(N[C@@H]2CCNC2)c2scc(Nc3ccon3)c2n1 [compound 497, 2-(3-Fluoro-pyridin-4-yl)-N*7*-isoxazol-3-yl-N*4*- (R)-pyrrolidin-3-yl-thieno[3,2-d]pyrimidine-4,7-diamine] | 10 to 40
4 | CC(C)(C)c1sc2c(NC[C@@H](N)Cc3ccccc3)nc(-c3ccncc3)nc2c1-c1cccc(N)c1 [compound 444, (S)-N*1*-[7-(3-Amino-phenyl)-6-tert-butyl-2-pyridin-4-yl-thieno[3,2-d]pyrimidin-4-yl]-3-phenyl-propane-1,2-diamine] | 10 to 40
5 | c1cc(-c2nc(N[C@@H]3CCNC3)c3sccc3n2)cc(NC2CCCCC2)n1 [compound 623, [2-(2-Cyclohexylamino-pyridin-4-yl)-thieno[3,2-d]pyrimidin-4-yl]-(R)-pyrrolidin-3-yl-amine] | 10 to 40
6 | COc1cnccc1-c1c(C)sc2c(NC[C@@H](N)Cc3ccccc3)nc(-c3ccncc3)nc12 [compound 456, (S)-N*1*-[7-(3-Methoxy-pyridin-4-yl)-6-methyl-2-pyridin-4-yl-thieno[3,2-d]pyrimidin-4-yl]-3-phenyl-propane-1,2-diamine] | 10 to 40
7 | N[C@H](CNc1nc(-c2ccncc2Cl)nc2ccsc12)Cc1ccccc1 [compound 323, (S)-N*1*-[2-(3-Chloro-pyridin-4-yl)-thieno[3,2-d]pyrimidin-4-yl]-3-phenyl-propane-1,2-diamine] | 1 to 10

Results, then the molecule that gave them:

Row | IC50 [µM] | SMILES
8 | 1 to 10 | CN1CC[C@@H](Nc2nc(-c3ccnc(NC(=O)c4cccs4)c3)nc3ccsc23)C1 [compound 628, Thiophene-2-carboxylic acid {4-[4-((R)-1-methyl-pyrrolidin-3-ylamino)-thieno[3,2-d]pyrimidin-2-yl]-pyridin-2-yl}-amide]
9 | < 0.1 | N[C@H](CNc1nc(-c2ccncc2)nc2c(C#CC3(O)CCC3)csc12)Cc1ccccc1 [compound 539, 1-[4-((S)-2-Amino-3-phenyl-propylamino)-2-pyridin-4-yl-thieno[3,2-d]pyrimidin-7-ylethynyl]-cyclobutanol]
10 | 1 to 10 | Cc1sc2c(NC[C@H](N)Cc3ccccc3)nc(-c3ccncc3)nc2c1Br [compound 329, (R)-N*1*-(7-Bromo-6-methyl-2-pyridin-4-yl-thieno[3,2-d]pyrimidin-4-yl)-3-phenyl-propane-1,2-diamine]
11 | 1 to 10 | c1ccc(Nc2cc(-c3nc(N[C@@H]4CCNC4)c4sccc4n3)ccn2)nc1 [compound 600, {2-[2-(Pyridin-2-ylamino)-pyridin-4-yl]-thieno[3,2-d]pyrimidin-4-yl}-(R)-pyrrolidin-3-yl-amine]
12 | 0.1 to 1 | CN1CCN(c2ccc(C(=O)Nc3cc(-c4nc(N[C@@H]5CCNC5)c5sccc5n4)ccn3)cc2)CC1 [compound 620, 4-(4-Methyl-piperazin-1-yl)-N-{4-[4-((R)-pyrrolidin-3-ylamino)-thieno[3,2-d]pyrimidin-2-yl]-pyridin-2-yl}-benzamide]
13 | 0.1 to 1 | c1cc(-c2nc(N[C@@H]3CCNC3)c3sccc3n2)cc(Nc2ccc(-c3ccsc3)cc2)n1 [compound 617, (R)-Pyrrolidin-3-yl-{2-[2-(4-thiophen-3-yl-phenylamino)-pyridin-4-yl]-thieno[3,2-d]pyrimidin-4-yl}-amine]
14 | < 0.1 | CC(O)CC#Cc1csc2c(NC[C@@H](N)Cc3ccccc3)nc(-c3ccncc3)nc12 (stereo partly drawn) [compound 536, 5-[4-((S)-2-Amino-3-phenyl-propylamino)-2-pyridin-4-yl-thieno[3,2-d]pyrimidin-7-yl]-pent-4-yn-2-ol]
15 | 1 to 10 | CC(C)(C)NC(=O)c1csc2c(NC[C@@H](N)Cc3ccccc3)nc(-c3ccncc3)nc12 [compound 557, 4-((S)-2-Amino-3-phenyl-propylamino)-2-pyridin-4-yl-thieno[3,2-d]pyrimidine-7-carboxylic acid tert-butylamide]
16 | 1 to 10 | O=C(Nc1cc(-c2nc(N[C@@H]3CCNC3)c3sccc3n2)ccn1)c1ccco1 [compound 574, Furan-2-carboxylic acid {4-[4-((R)-pyrrolidin-3-ylamino)-thieno[3,2-d]pyrimidin-2-yl]-pyridin-2-yl}-amide]
17 | < 0.1 | Cc1sc2c(NC[C@@H](N)Cc3ccccc3)nc(-c3ccncc3)nc2c1-c1ccn[nH]1 [compound 388, (S)—N*1*-[6-methyl-7-(2H-pyrazol-3-yl)-2-pyridin-4-yl-thieno[3,2-d]pyrimidin-4-yl]-3-phenyl-propane-1,2-diamine]
18 | 1 to 10 | N#Cc1cccc(Nc2cc(-c3nc(N[C@@H]4CCNC4)c4sccc4n3)ccn2)c1 [compound 606, 3-{4-[4-((R)-Pyrrolidin-3-ylamino)-thieno[3,2-d]pyrimidin-2-yl]-pyridin-2-ylamino}-benzonitrile]
19 | 1 to 10 | Cc1noc(C)c1-c1csc2c(NCC(N)Cc3ccccc3)nc(-c3ccncc3F)nc12 (stereo in doubt) [compound 428, (R)-N*1*-[7-(3,5-Dimethyl-isoxazol-4-yl)-2-(3-fluoro-pyridin-4-yl)-thieno[3,2-d]pyrimidin-4-yl]-3-phenyl-propane-1,2-diamine]

The molecules below were run against T2, kinase-domain human PKCι (Homo sapiens, UniProt P41743) (assay: PKCι IC50 IMAP fluorescence polarisation assay, kinase-domain enzyme). Conditions: kinase domain PKCi at 2 μM ATP; read-out: IC50 in IMAP assay against kinase domain PKCi.
T2 construct: Recombinant, kinase-domain human PKCι is expressed and purified in-house; made in house
T2 sequence (P41743 254-522 limits assumed): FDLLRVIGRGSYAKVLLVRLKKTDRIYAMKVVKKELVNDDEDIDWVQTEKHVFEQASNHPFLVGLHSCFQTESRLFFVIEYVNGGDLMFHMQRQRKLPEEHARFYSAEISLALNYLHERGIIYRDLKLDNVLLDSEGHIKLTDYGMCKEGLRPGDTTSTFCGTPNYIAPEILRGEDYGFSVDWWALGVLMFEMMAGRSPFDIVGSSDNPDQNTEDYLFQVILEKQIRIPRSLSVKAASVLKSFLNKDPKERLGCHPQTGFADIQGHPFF
Format: biochemical
Experimental: Assays are based on the ability of PKCι to phosphorylate a commercially available peptide substrate in vitro. […] Recombinant, full-length human PKCι expressed in Sf21 insect cells is also commercially available. Recombinant, kinase-domain human PKCι is expressed and purified in-house.
The procedure below explains how dose response curves for inhibitors of PKCι are obtained.
Compounds to be tested are dissolved in 100% DMSO. […] 1 μl is plated into 384 well black low-binding flat bottomed assay plates which are used immediately. Dilutions and additions of compound to assay plates are carried out using Matrix WellMate® and Matrix PlateMate® Plus liquid handling systems.
The final concentration of peptide substrate in the assay is 100 nM. […] Relevant controls are included, namely no compound and no enzyme. […] The reaction is allowed to incubate for 60 minutes at room temperature, before the reaction is stopped and developed by the addition of 20 μl IMAP™ development reagent (Molecular Devices). IMAP development reagent consists of 0.25% (v/v) IMAP progressive binding reagent, 17% (v/v) IMAP progressive binding buffer A and 3% (v/v) IMAP progressive binding buffer B. The plates are then incubated for 2 hours at room temperature before being read using an appropriate plate reader, for example a Molecular Devices HT Analyst or a BMG Pherastar.

Row | SMILES | IC50 [µM]
20 | NCCNc1nc(-c2ccncc2)nc2c1sc1cccc(Cl)c12 [compound 386, N*1*-(9-Chloro-2-pyridin-4-yl-benzo[4,5]thieno[3,2-d]pyrimidin-4-yl)-ethane-1,2-diamine] | 0.1 to 1

Same assay, conditions: kinase domain PKCi at 2 μM ATP; read-out: IC50 in IMAP assay against kinase domain PKCi (Activity)

Row | SMILES | IC50 [µM]
21 | c1cc(CN2CCN(c3nc(-c4ccncc4)nc4sc5c(c34)CCCC5)CC2)ccn1 [compound 118, 2-Pyridin-4-yl-4-(4-pyridin-4-ylmethyl-piperazin-1-yl)-5,6,7,8-tetrahydro-benzo[4,5]thieno[2,3-d]pyrimidine] | 1 to 10
22 | C[C@H](N)CNc1nc(-c2ccncc2F)nc2sc3c(c12)CCCC3 [compound 99, (S)-N*1*-[2-(3-Fluoro-pyridin-4-yl)-5,6,7,8-tetrahydro-benzo[4,5]thieno[2,3-d]pyrimidin-4-yl]-propane-1,2-diamine] | 1 to 10
23 | Cc1n[nH]c(C)c1-c1nc(NC[C@@H](N)Cc2ccccc2)c2c3c(sc2n1)CCCC3 [compound 184, (S)-N*1*-[2-(3,5-Dimethyl-1H-pyrazol-4-yl)-5,6,7,8-tetrahydro-benzo[4,5]thieno[2,3-d]pyrimidin-4-yl]-3-phenyl-propane-1,2-diamine] | 1 to 10
24 | FC(F)(F)c1ccc(CN2CCN(c3nc(-c4ccncc4)nc4sc5c(c34)CCCC5)CC2)cc1 [compound 121, 2-Pyridin-4-yl-4-[4-(4-trifluoromethyl-benzyl)-piperazin-1-yl]-5,6,7,8-tetrahydro-benzo[4,5]thieno[2,3-d]pyrimidine] | 10 to 40
25 | CCN1CCN(c2nc(-c3ccncc3)nc3sc4c(c23)CCCC4)CC1 [compound 119, 4-(4-Ethyl-piperazin-1-yl)-2-pyridin-4-yl-5,6,7,8-tetrahydro-benzo[4,5]thieno[2,3-d]pyrimidine] | 1 to 10
26 | c1cc(-c2nc(O[C@H]3CCNC3)c3c4c(sc3n2)CCCC4)ccn1 [compound 140, 2-Pyridin-4-yl-4-((S)-pyrrolidin-3-yloxy)-5,6,7,8-tetrahydro-benzo[4,5]thieno[2,3-d]pyrimidine] | 1 to 10
